Assay results taken from paper PMC12090182, “Repurposing of the RIPK1-Selective Benzo[1,4]oxazepin-4-one Scaffold for the Development of a Type III LIMK1/2 Inhibitor” (ACS Chemical Biology, 2025).

Legend:
Assay in all cases: biochemical
Format in all cases: binding
[1] = target: 468 kinases including some pathogenic mutants (Homo sapiens, UniProt Q9NWZ3); details: IRAK4 (Entrez IRAK4), 1000 nM; read-out: Percent Control
[2] = target: 468 kinases including some pathogenic mutants (Homo sapiens, UniProt P04049); details: RAF1 (Entrez RAF1), 1000 nM; read-out: Percent Control
Sequence of 468 kinases including some pathogenic mutants (Homo sapiens, UniProt P04049) (P04049 whole entry, change not shown): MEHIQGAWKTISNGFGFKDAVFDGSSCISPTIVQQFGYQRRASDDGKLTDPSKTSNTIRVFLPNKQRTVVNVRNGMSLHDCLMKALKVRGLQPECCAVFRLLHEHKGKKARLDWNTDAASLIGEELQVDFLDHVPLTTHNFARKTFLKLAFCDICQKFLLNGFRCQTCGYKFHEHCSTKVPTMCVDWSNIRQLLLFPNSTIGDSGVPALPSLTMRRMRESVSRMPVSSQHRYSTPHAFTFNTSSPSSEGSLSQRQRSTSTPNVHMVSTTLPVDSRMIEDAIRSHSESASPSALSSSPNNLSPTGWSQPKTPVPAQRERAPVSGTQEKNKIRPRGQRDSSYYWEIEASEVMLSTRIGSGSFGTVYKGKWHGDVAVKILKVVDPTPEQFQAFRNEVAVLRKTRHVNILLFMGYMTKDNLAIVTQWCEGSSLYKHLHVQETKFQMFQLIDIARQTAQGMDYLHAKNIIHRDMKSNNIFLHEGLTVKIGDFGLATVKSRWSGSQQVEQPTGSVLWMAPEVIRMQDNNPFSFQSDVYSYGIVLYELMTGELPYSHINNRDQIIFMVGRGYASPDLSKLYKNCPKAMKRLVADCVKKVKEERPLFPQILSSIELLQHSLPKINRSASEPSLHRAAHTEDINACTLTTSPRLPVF

[3] = target: 468 kinases including some pathogenic mutants (Homo sapiens, UniProt P49840); details: GSK3A (Entrez GSK3A), 100 nM; read-out: Percent Control
[4] = target: 468 kinases including some pathogenic mutants (Homo sapiens, UniProt P46734); details: MEK3 (Entrez MAP2K3), 100 nM; read-out: Percent Control
Sequence of 468 kinases including some pathogenic mutants (Homo sapiens, UniProt P46734) (P46734 whole entry, change not shown): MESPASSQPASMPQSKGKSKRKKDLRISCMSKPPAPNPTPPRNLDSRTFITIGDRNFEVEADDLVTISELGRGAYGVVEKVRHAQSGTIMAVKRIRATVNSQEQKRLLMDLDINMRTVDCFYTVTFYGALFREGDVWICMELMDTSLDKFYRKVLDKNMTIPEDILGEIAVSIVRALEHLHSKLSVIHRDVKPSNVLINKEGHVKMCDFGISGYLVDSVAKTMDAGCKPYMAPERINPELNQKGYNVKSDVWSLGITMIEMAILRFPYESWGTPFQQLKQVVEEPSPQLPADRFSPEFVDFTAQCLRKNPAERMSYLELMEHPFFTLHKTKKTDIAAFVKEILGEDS

[5] = target: 468 kinases including some pathogenic mutants (Homo sapiens, UniProt P16591); details: FER (Entrez FER), 100 nM; read-out: Percent Control
[6] = target: 468 kinases including some pathogenic mutants (Homo sapiens, UniProt Q13627); details: DYRK1A (Entrez DYRK1A), 100 nM; read-out: Percent Control
[7] = target: 468 kinases including some pathogenic mutants (Homo sapiens, UniProt Q13177); details: PAK2 (Entrez PAK2), 100 nM; read-out: Percent Control
Sequence of 468 kinases including some pathogenic mutants (Homo sapiens, UniProt Q13177) (Q13177 whole entry, change not shown): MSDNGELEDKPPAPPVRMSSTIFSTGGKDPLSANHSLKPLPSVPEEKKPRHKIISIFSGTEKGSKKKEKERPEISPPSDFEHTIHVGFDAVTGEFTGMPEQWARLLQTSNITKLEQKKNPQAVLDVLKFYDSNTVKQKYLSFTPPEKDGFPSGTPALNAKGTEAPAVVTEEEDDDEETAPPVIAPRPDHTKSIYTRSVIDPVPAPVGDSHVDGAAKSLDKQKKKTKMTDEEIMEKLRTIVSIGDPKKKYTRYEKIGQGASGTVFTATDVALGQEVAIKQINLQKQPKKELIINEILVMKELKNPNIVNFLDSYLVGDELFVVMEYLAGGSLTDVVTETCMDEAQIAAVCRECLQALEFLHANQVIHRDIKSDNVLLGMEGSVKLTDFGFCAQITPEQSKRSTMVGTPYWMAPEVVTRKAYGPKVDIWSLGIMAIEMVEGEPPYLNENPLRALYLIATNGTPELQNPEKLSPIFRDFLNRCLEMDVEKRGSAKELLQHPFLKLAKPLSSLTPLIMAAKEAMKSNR

[8] = target: 468 kinases including some pathogenic mutants (Homo sapiens, UniProt O95835); details: LATS1 (Entrez LATS1), 100 nM; read-out: Percent Control
Sequence of 468 kinases including some pathogenic mutants (Homo sapiens, UniProt O95835) (O95835 whole entry, change not shown): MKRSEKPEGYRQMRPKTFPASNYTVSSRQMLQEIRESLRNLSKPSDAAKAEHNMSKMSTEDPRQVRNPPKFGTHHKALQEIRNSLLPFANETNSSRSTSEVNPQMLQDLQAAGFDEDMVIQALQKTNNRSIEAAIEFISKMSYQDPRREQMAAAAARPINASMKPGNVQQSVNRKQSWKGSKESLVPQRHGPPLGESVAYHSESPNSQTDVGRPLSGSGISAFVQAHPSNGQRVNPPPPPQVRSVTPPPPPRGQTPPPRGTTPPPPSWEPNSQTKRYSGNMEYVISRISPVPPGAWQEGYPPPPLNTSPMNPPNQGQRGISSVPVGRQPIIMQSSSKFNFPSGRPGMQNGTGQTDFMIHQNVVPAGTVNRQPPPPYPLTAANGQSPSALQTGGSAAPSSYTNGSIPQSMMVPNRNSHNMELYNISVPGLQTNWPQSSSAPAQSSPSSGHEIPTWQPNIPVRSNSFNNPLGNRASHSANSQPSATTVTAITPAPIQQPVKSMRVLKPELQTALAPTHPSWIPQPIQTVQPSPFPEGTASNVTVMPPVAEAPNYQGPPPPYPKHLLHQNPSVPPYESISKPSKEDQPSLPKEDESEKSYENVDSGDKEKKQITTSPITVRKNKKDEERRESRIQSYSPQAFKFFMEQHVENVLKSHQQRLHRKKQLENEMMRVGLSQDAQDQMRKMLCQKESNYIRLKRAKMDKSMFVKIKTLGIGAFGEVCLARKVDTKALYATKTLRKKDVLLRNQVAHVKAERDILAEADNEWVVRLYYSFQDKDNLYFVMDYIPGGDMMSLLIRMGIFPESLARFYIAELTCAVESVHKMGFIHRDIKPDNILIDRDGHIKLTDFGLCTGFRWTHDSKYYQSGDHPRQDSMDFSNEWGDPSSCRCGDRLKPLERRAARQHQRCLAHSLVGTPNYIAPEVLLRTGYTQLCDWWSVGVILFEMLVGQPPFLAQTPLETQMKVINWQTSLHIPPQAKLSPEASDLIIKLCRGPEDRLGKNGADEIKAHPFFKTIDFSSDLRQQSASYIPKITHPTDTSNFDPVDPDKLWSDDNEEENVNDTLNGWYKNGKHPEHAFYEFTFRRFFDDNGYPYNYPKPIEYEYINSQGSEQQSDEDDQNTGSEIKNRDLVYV

[9] = target: 468 kinases including some pathogenic mutants (Homo sapiens, UniProt P21127); details: CDC2L1 (Entrez CDK11B), 100 nM; read-out: Percent Control
[10] = target: 468 kinases including some pathogenic mutants (Homo sapiens, UniProt P42338); details: PIK3CB (Entrez PIK3CB), 100 nM; read-out: Percent Control
[11] = target: 468 kinases including some pathogenic mutants (Homo sapiens, UniProt Q9HC98); details: NEK6 (Entrez NEK6), 1000 nM; read-out: Percent Control
Sequence of 468 kinases including some pathogenic mutants (Homo sapiens, UniProt Q9HC98) (Q9HC98 whole entry, change not shown): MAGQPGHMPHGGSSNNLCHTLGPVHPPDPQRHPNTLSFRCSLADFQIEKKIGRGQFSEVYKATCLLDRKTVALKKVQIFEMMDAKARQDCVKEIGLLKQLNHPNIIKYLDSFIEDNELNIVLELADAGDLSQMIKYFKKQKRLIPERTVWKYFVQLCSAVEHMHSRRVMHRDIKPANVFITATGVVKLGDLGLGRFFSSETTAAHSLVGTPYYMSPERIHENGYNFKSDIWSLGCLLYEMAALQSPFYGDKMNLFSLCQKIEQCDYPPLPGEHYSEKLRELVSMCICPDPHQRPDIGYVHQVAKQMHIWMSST

[12] = target: 468 kinases including some pathogenic mutants (Homo sapiens, UniProt P08581); details: MET (Entrez MET), 100 nM; read-out: Percent Control
[13] = target: 468 kinases including some pathogenic mutants (Homo sapiens, UniProt O43683); details: BUB1 (Entrez BUB1), 100 nM; read-out: Percent Control
[14] = target: 468 kinases including some pathogenic mutants (Homo sapiens, UniProt Q56UN5); details: YSK4 (Entrez MAP3K19), 1000 nM; read-out: Percent Control
[15] = target: 468 kinases including some pathogenic mutants (Homo sapiens, UniProt P57059); details: SIK (Entrez SIK1), 100 nM; read-out: Percent Control
Sequence of 468 kinases including some pathogenic mutants (Homo sapiens, UniProt P57059) (P57059 whole entry, change not shown): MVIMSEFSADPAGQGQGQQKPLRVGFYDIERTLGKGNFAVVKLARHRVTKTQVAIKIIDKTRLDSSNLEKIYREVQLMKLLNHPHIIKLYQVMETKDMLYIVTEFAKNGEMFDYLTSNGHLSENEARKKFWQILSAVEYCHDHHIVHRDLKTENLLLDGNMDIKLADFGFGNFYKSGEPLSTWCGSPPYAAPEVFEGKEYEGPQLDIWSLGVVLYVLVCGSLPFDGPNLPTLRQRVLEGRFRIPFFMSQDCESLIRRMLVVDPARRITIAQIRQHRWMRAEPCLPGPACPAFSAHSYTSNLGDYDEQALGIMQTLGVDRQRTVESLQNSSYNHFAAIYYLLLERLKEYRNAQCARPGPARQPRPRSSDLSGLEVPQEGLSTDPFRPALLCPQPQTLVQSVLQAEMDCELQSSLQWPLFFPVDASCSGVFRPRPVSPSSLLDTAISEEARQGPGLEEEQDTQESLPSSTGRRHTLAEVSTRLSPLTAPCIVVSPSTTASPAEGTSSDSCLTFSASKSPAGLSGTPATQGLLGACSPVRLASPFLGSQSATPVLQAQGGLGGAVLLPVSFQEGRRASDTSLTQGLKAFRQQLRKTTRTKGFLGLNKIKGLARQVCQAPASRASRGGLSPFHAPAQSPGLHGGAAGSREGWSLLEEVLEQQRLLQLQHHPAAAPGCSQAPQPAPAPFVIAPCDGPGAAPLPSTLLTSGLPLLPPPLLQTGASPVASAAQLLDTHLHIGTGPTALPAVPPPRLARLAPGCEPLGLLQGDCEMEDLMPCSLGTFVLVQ

[16] = target: 468 kinases including some pathogenic mutants (Homo sapiens, UniProt Q15569); details: TESK1 (Entrez TESK1), 100 nM; read-out: Percent Control
[17] = target: 468 kinases including some pathogenic mutants (Homo sapiens, UniProt Q96PY6); details: NEK1 (Entrez NEK1), 1000 nM; read-out: Percent Control
[18] = target: 468 kinases including some pathogenic mutants (Homo sapiens, UniProt O75747); details: PIK3C2G (Entrez PIK3C2G), 100 nM; read-out: Percent Control
[19] = target: 468 kinases including some pathogenic mutants (Homo sapiens, UniProt Q12851); details: MAP4K2 (Entrez MAP4K2), 100 nM; read-out: Percent Control
[20] = target: 468 kinases including some pathogenic mutants (Homo sapiens, UniProt P12931); details: SRC (Entrez SRC), 1000 nM; read-out: Percent Control
[21] = target: 468 kinases including some pathogenic mutants (Homo sapiens, UniProt P07949, M918T); details: read-out: Percent Control
[22] = target: 468 kinases including some pathogenic mutants (Homo sapiens, UniProt P00519, E255K); details: read-out: Percent Control
[23] = target: 468 kinases including some pathogenic mutants (Homo sapiens, UniProt Q16513); details: PKN2 (Entrez PKN2), 1000 nM; read-out: Percent Control
[24] = target: 468 kinases including some pathogenic mutants (Homo sapiens, UniProt P51451); details: BLK (Entrez BLK), 100 nM; read-out: Percent Control
[25] = target: 468 kinases including some pathogenic mutants (Homo sapiens, UniProt Q9UEW8); details: STK39 (Entrez STK39), 100 nM; read-out: Percent Control
[26] = target: 468 kinases including some pathogenic mutants (Homo sapiens, UniProt Q5VT25); details: MRCKA (Entrez CDC42BPA), 100 nM; read-out: Percent Control
[27] = target: 468 kinases including some pathogenic mutants (Homo sapiens, UniProt Q96BR1); details: SGK3 (Entrez SGK3), 100 nM; read-out: Percent Control
Sequence of 468 kinases including some pathogenic mutants (Homo sapiens, UniProt Q96BR1) (Q96BR1 whole entry, change not shown): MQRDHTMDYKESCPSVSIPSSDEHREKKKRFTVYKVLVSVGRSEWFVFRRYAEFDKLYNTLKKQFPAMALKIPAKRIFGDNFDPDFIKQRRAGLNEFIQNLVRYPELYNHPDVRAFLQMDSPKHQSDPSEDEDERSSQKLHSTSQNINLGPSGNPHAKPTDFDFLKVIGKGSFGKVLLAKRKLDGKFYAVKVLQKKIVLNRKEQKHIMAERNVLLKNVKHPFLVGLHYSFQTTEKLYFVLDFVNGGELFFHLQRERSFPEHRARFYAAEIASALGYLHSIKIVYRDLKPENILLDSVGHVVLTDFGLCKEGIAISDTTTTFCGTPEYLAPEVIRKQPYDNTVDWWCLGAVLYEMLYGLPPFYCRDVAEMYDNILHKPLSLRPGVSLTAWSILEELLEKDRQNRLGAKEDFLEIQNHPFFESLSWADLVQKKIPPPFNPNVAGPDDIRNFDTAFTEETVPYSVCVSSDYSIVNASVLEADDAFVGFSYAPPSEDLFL

[28] = target: 468 kinases including some pathogenic mutants (Homo sapiens, UniProt P51812); details: read-out: Percent Control
Sequence of 468 kinases including some pathogenic mutants (Homo sapiens, UniProt P51812) (P51812 whole entry, change not shown): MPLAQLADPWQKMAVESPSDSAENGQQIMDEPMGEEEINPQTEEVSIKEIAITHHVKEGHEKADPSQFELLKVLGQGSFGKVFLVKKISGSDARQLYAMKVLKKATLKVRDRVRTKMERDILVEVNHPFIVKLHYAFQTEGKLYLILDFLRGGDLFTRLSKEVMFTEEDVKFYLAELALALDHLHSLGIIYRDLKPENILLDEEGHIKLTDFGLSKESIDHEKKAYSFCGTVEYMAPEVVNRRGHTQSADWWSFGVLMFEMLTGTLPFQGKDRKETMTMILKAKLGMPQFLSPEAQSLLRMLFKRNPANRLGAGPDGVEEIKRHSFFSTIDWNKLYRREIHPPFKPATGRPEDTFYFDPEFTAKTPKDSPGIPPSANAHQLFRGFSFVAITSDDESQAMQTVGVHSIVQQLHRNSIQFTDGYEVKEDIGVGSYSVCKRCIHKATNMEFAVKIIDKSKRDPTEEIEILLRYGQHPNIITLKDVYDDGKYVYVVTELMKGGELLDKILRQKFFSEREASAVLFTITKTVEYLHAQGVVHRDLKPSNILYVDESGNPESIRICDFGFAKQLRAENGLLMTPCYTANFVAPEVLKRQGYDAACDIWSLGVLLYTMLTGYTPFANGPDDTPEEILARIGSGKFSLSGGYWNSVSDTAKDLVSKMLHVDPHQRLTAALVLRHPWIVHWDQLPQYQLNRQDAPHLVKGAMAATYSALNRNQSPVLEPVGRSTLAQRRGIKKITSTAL

**Q.** What does the source list for `CN1C(=O)[C@@H](N2CCc3c(nn(Cc4ccccc4)c3C(N)=O)C2=O)COc2cc(Cl)ccc21` [Compound 10, (S)-2-benzyl-6-(8-chloro-5-methyl-4-oxo-2,3,4,5-tetrahydrobenzo[b][1,4]oxazepin-3-yl)-7-oxo-4,5,6,7-tetrahydro-2H-pyrazolo[3,4-c]pyridine-3-carboxamide]?
**A.** remaining activity at 1 µM [1]: 100%; remaining activity at 1 µM [2]: 100%; remaining activity at 0.1 µM [3]: 100%; remaining activity at 0.1 µM [4]: 85%; remaining activity at 0.1 µM [5]: 100%; remaining activity at 0.1 µM [6]: 89%; remaining activity at 0.1 µM [7]: 88%; remaining activity at 0.1 µM [8]: 62%; remaining activity at 0.1 µM [9]: 88%; remaining activity at 0.1 µM [10]: 100%; remaining activity at 1 µM [11]: 100%; remaining activity at 0.1 µM [12]: 99%; remaining activity at 0.1 µM [13]: 84%; remaining activity at 1 µM [14]: 100%; remaining activity at 0.1 µM [15]: 71%; remaining activity at 0.1 µM [16]: 79%; remaining activity at 1 µM [17]: 100%; remaining activity at 0.1 µM [18]: 67%; remaining activity at 0.1 µM [19]: 70%; remaining activity at 1 µM [20]: 100%; remaining activity at 0.1 µM [21]: 82%; remaining activity at 0.1 µM [22]: 84%; remaining activity at 1 µM [23]: 100%; remaining activity at 0.1 µM [24]: 84%; remaining activity at 0.1 µM [25]: 67%; remaining activity at 0.1 µM [26]: 73%; remaining activity at 0.1 µM [27]: 90%; remaining activity at 1 µM ([28]; RSK2(Kin.Dom.1-N-terminal) (Entrez RPS6KA3), 1000 nM): 100%; remaining activity at 0.1 µM ([28]; RSK2(Kin.Dom.2-C-terminal) (Entrez RPS6KA3), 100 nM): 74%
